# Results from PubChem BioAssay AID248 (DTP/NCI, 2004).
# Where “and” joins values, the source holds several entries; their conditions need not be identical. Equal values may be shown once. Inconclusive results and toxic doses are left out.
# System: L1210 leukemia ip in BDF1 mice, survival T/C
# Assay: NCI In Vivo Anticancer Drug Screen. Data for tumor model L1210 Leukemia (intraperitoneal) in B6D2F1 (BDF1) mice
# Conditions: endpoint: mean survival time, higher = longer survival
# Outline: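 Read-out is survival time, reported as the treated-group measurement over the vehicle-control measurement.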
# [1] = dose: 50.0 mg/kg/injection, schedule: Q01DX009 (ip), vehicle: saline
# [2] = dose: 100.0 mg/kg/injection, schedule: Q01DX009 (ip), vehicle: saline
# [3] = dose: 200.0 mg/kg/injection, schedule: Q01DX009 (ip), vehicle: saline
# [4] = dose: 100.0 mg/kg/injection, schedule: Q04DX003 (ip), vehicle: saline
# [5] = dose: 200.0 mg/kg/injection, schedule: Q04DX003 (ip), vehicle: saline
# [6] = dose: 400.0 mg/kg/injection, schedule: Q04DX003 (ip), vehicle: saline
# [7] = dose: 100.0 mg/kg/injection, schedule: Q01DX001 (ip), vehicle: saline
# [8] = dose: 100.0 mg/kg/injection, schedule: Q01DX001 (ip), vehicle: saline with Tween-80
# [9] = dose: 100.0 mg/kg/injection, schedule: Q01DX009 (ip), vehicle: saline with Tween-80
# [10] = dose: 100.0 mg/kg/injection, schedule: Q04DX002 (ip), vehicle: saline with Tween-80
# [11] = dose: 100.0 mg/kg/injection, schedule: Q04DX003 (ip), vehicle: saline with Tween-80
# [12] = dose: 200.0 mg/kg/injection, schedule: Q01DX001 (ip), vehicle: saline with Tween-80
# [13] = dose: 200.0 mg/kg/injection, schedule: Q01DX009 (ip), vehicle: saline with Tween-80
# [14] = dose: 200.0 mg/kg/injection, schedule: Q04DX002 (ip), vehicle: saline with Tween-80
# [15] = dose: 200.0 mg/kg/injection, schedule: Q04DX003 (ip), vehicle: saline with Tween-80
# [16] = dose: 400.0 mg/kg/injection, schedule: Q01DX001 (ip), vehicle: saline with Tween-80
# [17] = dose: 400.0 mg/kg/injection, schedule: Q01DX009 (ip), vehicle: saline with Tween-80
# [18] = dose: 400.0 mg/kg/injection, schedule: Q04DX002 (ip), vehicle: saline with Tween-80
# [19] = dose: 400.0 mg/kg/injection, schedule: Q04DX003 (ip), vehicle: saline with Tween-80
smiles,measurement,setting,value
CCCN=C(N)c1ccc(NC(=O)c2ccc(C(=O)Nc3ccc(C(N)=NCCC)cc3)cc2)cc1,T/C,"dose: 0.16 mg/kg/injection, schedule: Q01DX Z (ip), vehicle: carboxymethylcellulose (CMC)",105 % of control
same,T/C,"dose: 0.31 mg/kg/injection, schedule: Q01DX Z (ip), vehicle: carboxymethylcellulose (CMC)",113 % of control
same,T/C,"dose: 1.25 mg/kg/injection, schedule: Q01DX Z (ip), vehicle: carboxymethylcellulose (CMC)",211 % of control and 257 % of control
same,T/C,"dose: 2.5 mg/kg/injection, schedule: Q01DX Z (ip), vehicle: carboxymethylcellulose (CMC)",190 % of control
same,T/C,"dose: 3.0 mg/kg/injection, schedule: Q01DX001 (ip), vehicle: carboxymethylcellulose (CMC)",114 % of control
same,T/C,"dose: 10.0 mg/kg/injection, schedule: Q01DX001 (ip), vehicle: carboxymethylcellulose (CMC)",169 % of control
same,T/C,"dose: 10.0 mg/kg/injection, schedule: Q01DX001 (ip), vehicle: other",157 % of control
same,T/C,"dose: 10.0 mg/kg/injection, schedule: Q01DX Z (ip), vehicle: carboxymethylcellulose (CMC)",113 % of control
same,T/C,"dose: 15.0 mg/kg/injection, schedule: Q01DX001 (ip), vehicle: carboxymethylcellulose (CMC)",176 % of control and 180 % of control
same,T/C,"dose: 15.0 mg/kg/injection, schedule: Q01DX001 (ip), vehicle: other",168 % of control and 191 % of control
same,T/C,"dose: 22.5 mg/kg/injection, schedule: Q01DX001 (ip), vehicle: carboxymethylcellulose (CMC)",268 % of control
same,T/C,"dose: 22.5 mg/kg/injection, schedule: Q01DX001 (ip), vehicle: other",234 % of control
same,T/C,"dose: 33.0 mg/kg/injection, schedule: Q01DX001 (ip), vehicle: carboxymethylcellulose (CMC)",257 % of control
same,T/C,"dose: 33.0 mg/kg/injection, schedule: Q01DX001 (ip), vehicle: other",269 % of control
same,T/C,"dose: 50.0 mg/kg/injection, schedule: Q01DX Z (oral), vehicle: carboxymethylcellulose (CMC)",104 % of control
same,T/C,"dose: 100.0 mg/kg/injection, schedule: Q01DX Z (oral), vehicle: carboxymethylcellulose (CMC)",107 % of control
same,T/C,"dose: 200.0 mg/kg/injection, schedule: Q01DX Z (oral), vehicle: carboxymethylcellulose (CMC)",103 % of control
same,T/C,"dose: 400.0 mg/kg/injection, schedule: Q01DX Z (oral), vehicle: carboxymethylcellulose (CMC)",98 % of control
NC(N)=N/N=C(\c1ccc(Cl)cc1)C1CC1,T/C,"dose: 15.0 mg/kg/injection, schedule: Q01DX Z (ip), vehicle: methylcellulose (MC)",101 % of control
same,T/C,"dose: 30.0 mg/kg/injection, schedule: Q01DX Z (ip), vehicle: methylcellulose (MC)",95 % of control
same,T/C,"dose: 30.0 mg/kg/injection, schedule: Q01DX Z (oral), vehicle: methylcellulose (MC)",92 % of control
same,T/C,"dose: 60.0 mg/kg/injection, schedule: Q01DX Z (ip), vehicle: methylcellulose (MC)",98 % of control
same,T/C,"dose: 60.0 mg/kg/injection, schedule: Q01DX Z (oral), vehicle: methylcellulose (MC)",93 % of control
same,T/C,"dose: 240.0 mg/kg/injection, schedule: Q01DX Z (oral), vehicle: methylcellulose (MC)",95 % of control
same,T/C,"dose: 375.0 mg/kg/injection, schedule: Q01DX Z (oral), vehicle: methylcellulose (MC)",92 % of control
same,T/C,"dose: 500.0 mg/kg/injection, schedule: Q01DX Z (oral), vehicle: methylcellulose (MC)",88 % of control
CC12C(=O)C(C(c3ccccc3)=C1c1ccccc1)C1C(=O)OC(=O)C12 (configuration not stated),T/C,"dose: 75.0 mg/kg/injection, schedule: Q01DX001 (ip), vehicle: saline",95 % of control
same,T/C,"dose: 150.0 mg/kg/injection, schedule: Q01DX001 (ip), vehicle: saline",86 % of control
same,T/C,"dose: 300.0 mg/kg/injection, schedule: Q01DX001 (ip), vehicle: saline",95 % of control
C/C=C/C1CCCCC1,T/C,[1],97 % of control
same,T/C,[2],97 % of control
same,T/C,[3],93 % of control
Nc1nc(=O)n(C2CC(O)C(CO)O2)cc1F (configuration not stated),T/C,"dose: 30.0 mg/kg/injection, schedule: Q01DX Z (ip), vehicle: saline",105 % of control
CCOC(=O)/C(C#N)=C\c1ccc2n1Cc1cc3c(cc1N(C(C)=O)C2)OCO3,T/C,"dose: 25.0 mg/kg/injection, schedule: Q04DX002 (ip), vehicle: Klucel (hydroxypropylcellulose) (HPC)",102 % of control
same,T/C,"dose: 50.0 mg/kg/injection, schedule: Q04DX002 (ip), vehicle: Klucel (hydroxypropylcellulose) (HPC)",95 % of control
same,T/C,"dose: 100.0 mg/kg/injection, schedule: Q04DX002 (ip), vehicle: Klucel (hydroxypropylcellulose) (HPC)",98 % of control
O=C(NNC(=O)OCCCl)OCCCl,T/C,"dose: 111.0 mg/kg/injection, schedule: Q01DX Z (ip), vehicle: methylcellulose (MC)",107 % of control
same,T/C,"dose: 166.0 mg/kg/injection, schedule: Q01DX Z (ip), vehicle: methylcellulose (MC)",92 % of control
same,T/C,"dose: 250.0 mg/kg/injection, schedule: Q01DX Z (ip), vehicle: methylcellulose (MC)",107 % of control
CN(C)C(=S)Oc1ccc(Cl)cc1S(=O)(=O)F,T/C,"dose: 100.0 mg/kg/injection, schedule: Q04DX003 (ip), vehicle: Klucel (hydroxypropylcellulose) (HPC)",106 % of control
same,T/C,"dose: 200.0 mg/kg/injection, schedule: Q04DX003 (ip), vehicle: Klucel (hydroxypropylcellulose) (HPC)",101 % of control
same,T/C,"dose: 400.0 mg/kg/injection, schedule: Q04DX003 (ip), vehicle: Klucel (hydroxypropylcellulose) (HPC)",102 % of control
OC[CH2][Sb]([Cl])([Cl])([c]1ccccc1)[c]1ccccc1,T/C,"dose: 5.0 mg/kg/injection, schedule: Q04DX002 (ip), vehicle: saline with Tween-80",97 % of control
same,T/C,"dose: 10.0 mg/kg/injection, schedule: Q04DX002 (ip), vehicle: saline with Tween-80",101 % of control
same,T/C,"dose: 20.0 mg/kg/injection, schedule: Q04DX002 (ip), vehicle: saline with Tween-80",101 % of control
NC(N)=NCCCC(=O)O,T/C,[2],92 % of control
same,T/C,[4],110 % of control
same,T/C,[3],94 % of control
same,T/C,[5],108 % of control
same,T/C,"dose: 400.0 mg/kg/injection, schedule: Q01DX009 (ip), vehicle: saline",92 % of control
same,T/C,[6],103 % of control
O=S(=O)(O)C(O)c1ccc(C(O)S(=O)(=O)O)cc1 (configuration not stated),T/C,[7],107 % of control
same,T/C,[4],92 % of control
same,T/C,"dose: 200.0 mg/kg/injection, schedule: Q01DX001 (ip), vehicle: saline",107 % of control
same,T/C,[5],102 % of control
same,T/C,"dose: 400.0 mg/kg/injection, schedule: Q01DX001 (ip), vehicle: saline",105 % of control
same,T/C,[6],95 % of control
O=C(O)C(Cl)Cc1cnc[nH]1 (configuration not stated),T/C,[1],100 % of control
same,T/C,[2],100 % of control
same,T/C,[3],103 % of control
COc1ccc(NC(=O)Nc2cccc(Cl)c2C)c(OC)c1,T/C,[8],98 % of control
same,T/C,[9],93 % of control and 89 % of control
same,T/C,[10],93 % of control and 92 % of control
same,T/C,[11],86 % of control
same,T/C,[12],102 % of control
same,T/C,[13],94 % of control and 86 % of control
same,T/C,[14],104 % of control and 90 % of control
same,T/C,[15],86 % of control
same,T/C,[16],100 % of control
same,T/C,[17],97 % of control and 110 % of control
same,T/C,[18],90 % of control
same,T/C,[19],91 % of control
c1cc2c3c(c1)[I+]c1cccc(c1-3)[I+]2,T/C,"dose: 50.0 mg/kg/injection, schedule: Q01DX001 (ip), vehicle: saline",112 % of control
same,T/C,[7],116 % of control
COc1cccc(NC(=O)NC(C)(C)C)c1,T/C,"dose: 50.0 mg/kg/injection, schedule: Q01DX009 (ip), vehicle: saline with Tween-80",95 % of control and 119 % of control
same,T/C,[8],106 % of control
same,T/C,[10],97 % of control and 103 % of control
same,T/C,[11],105 % of control
same,T/C,[12],100 % of control
same,T/C,[14],94 % of control and 100 % of control
same,T/C,[15],104 % of control
same,T/C,[16],111 % of control
same,T/C,[17],103 % of control and 108 % of control
same,T/C,[18],97 % of control and 86 % of control
same,T/C,[19],96 % of control
O=C(c1ccccc1)c1cn(C2CCCCC2)c(-c2ccccc2)c1NC1CCCCC1,T/C,[9],93 % of control
same,T/C,[13],93 % of control
same,T/C,[17],102 % of control
C=C(c1ccccc1)C(C)C(=O)OCC (configuration not stated),T/C,[9],96 % of control
same,T/C,[13],101 % of control
same,T/C,[17],98 % of control
CCCC(C)C(C(=O)O)c1ccccc1 (configuration not stated),T/C,[9],102 % of control
same,T/C,[11],117 % of control
same,T/C,[13],104 % of control
same,T/C,[15],100 % of control
same,T/C,[17],100 % of control
same,T/C,[19],99 % of control
